Test results taken from patent EP4737445A1, “NOVEL SATURATED HETEROCYCLE-SUBSTITUTED HETEROARYL-CARBONOHYDRAZONOYL DICYANIDE COMPOUND AND USE THEREOF” (Korea Institute of Science and Technology, priority 2023, dated 2025).

Legend:
Tau-BiFC cells = experiment: Cell viability (stained nuclei count) in Tau-BiFC cells; assay type: cell-based; conditions: @10 µM; Tau-BiFC cell line; Forskolin-only group = 100%
Method: To screen for new tau aggregation inhibitors, a Tau-BiFC cell model that facilitates observation of tau oligomer formation in living cells was used. Tau-BiFC cells were dispensed into a 384-well plate, and the next day, the compounds prepared according to Examples 1 to 46 were treated at concentrations of 1, 3, and 10 µM, respectively, together with Forskolin (treatment concentration 30 µM), which is a compound that induces tau aggregation by activating the tau phosphorylation enzyme PKA. After 48 hours, nuclei within cells were stained using Hoechst (treatment concentration 2 µg/mL), and BiFC fluorescence intensity was automatically quantified using Operetta (Perkin Elmer) to count the stained nuclei in each well from the entire plate. The group treated only with Forskolin, which induces tau aggregation, was set as the reference point with 100% tau aggregation state, and the effect was confirmed by the formula "BiFC fluorescence intensity by the compounds synthesized according to the Examples of the disclosure/(fluorescence intensity of the control group treated only with Forskolin that induces tau aggregation - fluorescence intensity of the untreated control group) × 100". In addition, the degree of cytotoxicity induced by the newly synthesized compounds was also calculated using the formula "(number of stained nuclei in the compound-treated group/number of stained nuclei in the Forskolin-treated group) × 100", with the group treated only with Forskolin as the reference point at 100% viability. From the treatment results, substances that inhibit intracellular tau aggregation were identified through screening from a series of candidates based on the criteria of 70% or more tau aggregation inhibition and 100% cell viability at a compound treatment concentration of 10 µM.
To confirm the tau aggregation inhibitory effect according to the concentration of the compounds screened in Experimental Example 1, the screened compounds were treated to Tau-BiFC cells at concentrations of 0.03, 0.1, 0.3, 1, 3, 10, and 30 µM, respectively, together with Forskolin (treatment concentration 30 µM), which is a tau aggregation-inducing substance. After 48 hours, cell images were examined to analyze the tau aggregation reaction and degree of cytotoxicity. The IC50 and toxicity of the compounds were analyzed by nonlinear regression analysis using Prism software (GraphPad). The calculated results for representative compounds are shown in Table 3 below: Tau aggregation inhibitory effect and cell viability of novel compounds.

[1] = Liver microsomal stability, mouse; assay type: in vitro ADME; conditions: 1 µM compound; 0.5 mg/mL microsomes; NADPH; 30 minutes at 37°C
Method: Liver microsomal stability by the compounds prepared according to Examples 1 to 46 was confirmed. Specifically, four types of liver microsomes (human, dog, rat, and mouse each at 0.5 mg/mL), 0.1 M phosphate buffer solution (pH 7.4), and the compounds at 1 µM concentration were added and pre-incubated at 37°C for 5 minutes, and then NADPH generation system solution was added and incubated at 37°C for an additional 30 minutes. Thereafter, an acetonitrile solution containing an internal standard (chloropropamide) was added to terminate the reaction, and after centrifugation for 5 minutes (14,000 rpm, 4°C), the supernatant was injected into an LC-MS/MS system to analyze the substrate drug, thereby evaluating the metabolic stability of 8 compounds.
The amount of remaining substrate through the reaction was analyzed using a Shimadzu Nexera XR system and TSQ vantage (Thermo). A Kinetex XB-C18 (2.1 × 100 mm, 2.6 µm, particle size; Phenomenex, USA) was used as the HPLC column, and (A) distilled water containing 0.1% formic acid and (B) acetonitrile containing 0.1% formic acid were used as mobile phases. Analyst software (version 1.6.3) and Xcalibur (version 1.6.1) were used for data analysis. The calculated results are shown in Table 5 below: Liver microsomal stability data of novel compounds from […] (human, rat, and mouse).

CYP1A2 = target: T1, CYP1A2 (Homo sapiens, UniProt P05177); experiment: CYP isoenzyme activity inhibition in human liver microsomes, CYP1A2; assay type: in vitro ADME; conditions: 10 µM compound; human liver microsomes 0.25 mg/mL; relative to control without compound
T1 construct: human liver microsomes (0.25 mg/mL); from tissue; host or cells: human liver microsomes
T1 sequence (P05177 1-516): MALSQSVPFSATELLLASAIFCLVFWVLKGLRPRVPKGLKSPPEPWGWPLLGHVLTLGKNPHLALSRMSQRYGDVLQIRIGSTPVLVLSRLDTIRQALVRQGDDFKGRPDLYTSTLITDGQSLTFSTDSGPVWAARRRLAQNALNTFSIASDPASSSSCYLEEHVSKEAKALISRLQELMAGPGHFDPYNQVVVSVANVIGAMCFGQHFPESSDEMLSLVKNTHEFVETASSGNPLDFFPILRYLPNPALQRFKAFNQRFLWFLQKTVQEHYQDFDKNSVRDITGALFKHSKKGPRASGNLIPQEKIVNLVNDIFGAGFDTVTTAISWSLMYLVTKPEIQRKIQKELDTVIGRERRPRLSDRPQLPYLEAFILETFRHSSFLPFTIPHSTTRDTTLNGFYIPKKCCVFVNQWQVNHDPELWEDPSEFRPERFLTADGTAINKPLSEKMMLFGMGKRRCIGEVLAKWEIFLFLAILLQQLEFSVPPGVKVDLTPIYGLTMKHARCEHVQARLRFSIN
Method: The CYP isoenzyme activity inhibitory effect by the compounds prepared according to Examples 1 to 46 was confirmed. Specifically, human liver microsomes (0.25 mg/mL), 0.1 M phosphate buffer solution (pH 7.4), a substrate drug cocktail of five drug metabolizing enzymes (Phenacetin 50 µM, Diclofenac 10 µM, S-mephenytoin 100 µM, Dextromethorphan 5 µM, and Midazolam 2.5 µM), and the compounds were added at concentrations of 0 or 10 µM, respectively, and pre-incubated at 37°C for 5 minutes, and then NADPH generation system solution was added and incubated at 37°C for an additional 15 minutes. Thereafter, an acetonitrile solution containing an internal standard (Terfenadine) was added to terminate the reaction, and after centrifugation for 5 minutes (14,000 rpm, 4°C), the supernatant was injected into an LC-MS/MS system to simultaneously analyze the metabolites of the substrate drugs, thereby evaluating the drug metabolizing enzyme inhibitory activity.
The metabolites of each CYP isoenzyme marker drug generated through the reaction were analyzed using a Shimadzu Nexera XR system and TSQ vantage (Thermo). A Kinetex C18 (2.1 × 100 mm, 2.6 µm, particle size; Phenomenex, USA) was used as the HPLC column, and (A) distilled water containing 0.1% formic acid and (B) acetonitrile containing 0.1% formic acid were used as mobile phases, and a gradient program as shown in Table 6 below was applied.
The generated metabolites were quantified using MRM (Multiple Reaction Monitoring) quantitative mode, and Xcalibur (version 1.6.1) was used for data analysis. To show the CYP isoenzyme activity inhibitory effect of the novel compounds prepared according to the Examples of the disclosure, the % activity of CYP isoenzymes relative to the control group without compound addition is shown in Table 6 below. Additionally, to confirm the difference in effect according to substituents, Comparative Compounds 1 and 5, which are two compounds that share a similar parent nucleus structure with Compounds 1 to 46 of the disclosure while Cy is substituted with aromatic heteroaryl instead of saturated heterocyclyl, were selected as comparative compounds and their activities are shown together.

Compound | Cell viability (% @10µM) (Tau-BiFC cells) [%] | Mouse microsomes (% remaining) [1] [% remaining] | CYP1A2 (% activity) (CYP1A2)
N#CC(C#N)=NNc1ccc2sc(N3CCOCC3)nc2c1 [Compound 1, (2-morpholinobenzo[d]thiazol-5-yl)carbonohydrazonoyl dicyanide] | 100 | 49.3 | 80.2
N#CC(C#N)=NNc1ccc2nc(N3CCOCC3)sc2c1 [Compound 2, (2-morpholinobenzo[d]thiazol-6-yl)carbonohydrazonoyl dicyanide] | 100 | 94.10 | 81.7
N#CC(C#N)=NNc1ccc2oc(N3CCOCC3)nc2c1 [Compound 3, (2-morpholinobenzo[d]oxazol-5-yl)carbonohydrazonoyl dicyanide] | 100 | 80.6 | 99.9
N#CC(C#N)=NNc1ccc2nc(N3CCOCC3)oc2c1 [Compound 4, (2-morpholinobenzo[d]oxazol-6-yl)carbonohydrazonoyl dicyanide] | 100 | 98.5 | 86.8
Cn1c(N2CCOCC2)nc2ccc(NN=C(C#N)C#N)cc21 [Compound 5, (1-methyl-2-morpholino-1H-benzo[d]imidazol-6-yl)carbonohydrazonoyl dicyanide] | 100 | 91.9 | 84.3
Cn1c(N2CCOCC2)nc2cc(NN=C(C#N)C#N)ccc21 [Compound 6, (1-methyl-2-morpholino-1H-benzo[d]imidazol-5-yl)carbonohydrazonoyl dicyanide] | 104 | 87.3 | 92.3
CN1CCN(c2nc3ccc(NN=C(C#N)C#N)cc3s2)CC1 [Compound 8, (2-(4-methylpiperazin-1-yl)benzo[d]thiazol-6-yl)carbonohydrazonoyl dicyanide] | 101 | 77.4 | 91.8
COC1CCN(c2nc3ccc(NN=C(C#N)C#N)cc3s2)CC1 [Compound 9, (2-(4-methoxypiperidin-1-yl)benzo[d]thiazol-6-yl)carbonohydrazonoyl dicyanide] | 100 | 83.8 | 68.9
CC1CN(c2nc3ccc(NN=C(C#N)C#N)cc3s2)CC(C)O1 (centres unmarked) [Compound 10, (2-(2,6-dimethylmorpholino)benzo[d]thiazol-6-yl)carbonohydrazonoyl dicyanide] | 109 | 87.3 | 68.4
N#CC(C#N)=NNc1ccc2nc(N3C4CCC3COC4)sc2c1 [Compound 11, (2-(3-oxa-8-azabicyclo[3.2.1]octan-8-yl)benzo[d]thiazol-6-yl)carbonohydrazonoyl dicyanide] | 100 | 87.8 | 83.7
CC1CN(c2nc3ccc(NN=C(C#N)C#N)cc3s2)CCO1 (centres unmarked) [Compound 12, (2-(2-methylmorpholino)benzo[d]thiazol-6-yl)carbonohydrazonoyl dicyanide] | 102 | 85.1 | 74.9
CC1COCCN1c1nc2ccc(NN=C(C#N)C#N)cc2s1 (centres unmarked) [Compound 13, (2-(3-methylmorpholino)benzo[d]thiazol-6-yl)carbonohydrazonoyl dicyanide] | 99 | 84.8 | 83
CN1CCN(c2nc3ccc(NN=C(C#N)C#N)cc3o2)CC1 [Compound 14, (2-(4-methylpiperazin-1-yl)benzo[d]oxazol-6-yl)carbonohydrazonoyl dicyanide] | 100 |  | 89.7
CC1CN(c2nc3ccc(NN=C(C#N)C#N)cc3o2)CCO1 (centres unmarked) [Compound 15, (2-(2-methylmorpholino)benzo[d]oxazol-6-yl)carbonohydrazonoyl dicyanide] | 100 | > 100 | 80.2
CC1COCCN1c1nc2ccc(NN=C(C#N)C#N)cc2o1 (centres unmarked) [Compound 16, (2-(3-methylmorpholino)benzo[d]oxazol-6-yl)carbonohydrazonoyl dicyanide] | 100 | 89.5 | 99.9
N#CC(C#N)=NNc1ccc2nc(N3CCNCC3)sc2c1 [Compound 24, (2-(piperazin-1-yl)benzo[d]thiazol-6-yl)carbonohydrazonoyl dicyanide] | 95 |  | 65.1
N#CC(C#N)=NNc1ccc2nc(N3CCNCC3)oc2c1 [Compound 25, (2-(piperazin-1-yl)benzo[d]oxazol-6-yl)carbonohydrazonoyl dicyanide] | 94 |  | 87
CC(C)N1CCN(c2nc3ccc(NN=C(C#N)C#N)cc3s2)CC1 [Compound 27, (2-(4-isopropylpiperazin-1-yl)benzo[d]thiazol-6-yl)carbonohydrazonoyl dicyanide] | 99 |  | 95.1
